In series [1] the target is T1, hGSTA1 (Homo sapiens, UniProt P08263).
T1 construct: purchased Novus NBP1-30307
T1 sequence (P08263 1-222): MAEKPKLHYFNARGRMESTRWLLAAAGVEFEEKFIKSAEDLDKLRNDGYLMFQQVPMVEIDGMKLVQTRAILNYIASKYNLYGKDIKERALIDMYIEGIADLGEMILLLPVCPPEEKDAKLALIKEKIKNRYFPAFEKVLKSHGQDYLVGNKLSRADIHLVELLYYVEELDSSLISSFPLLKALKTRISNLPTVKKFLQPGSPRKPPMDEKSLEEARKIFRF
The series can be described thus: DDA biosynthesis by hGSTA1 (histaminylation of 5,6α-EC, DDAS activity). Format: biochemical. The following applies: for Inhibition of DDA biosynthesis (DDAS): 10 mM CDNB, 1 μM 5,6β-EC or 10 μM CT, OCDO, 27-HC or 22(R)-HC (FIG. 3d-e). As for the experimental part: (§1) The mixture was incubated for 30 minutes at 30° C., and the reaction was stopped by addition of 200 μl MeOH. After centrifugation 10 min at 18,000 g (4° C.), the supernatant was evaporated to dryness using a speed vac concentrator (Savant SP01010, Thermo scientific) and the residue was resuspended in 20 μl MeOH. Samples were spotted on HPTLC NanoSilgur 10×10 cm plates (Macherey Nagel, ref 811042) and developed using ethyl acetate/butanol/acetic acid/water (6:2:3:2) for CDO-SG and CH2Cl/MeOH/NH4OH 84:15:1 for DDA. Standards were co-spotted with samples. […] The radioactivity was quantified by liquid scintillation counting of the ethanol extract of the silica scraped at the retention factor (Rf) corresponding to authentic 5,6α-EC, CDO-SG or DDA standards.

Series [2] concerns the target T1, hGSTA1. The series can be described thus: CDO-SG biosynthesis by hGSTA1 (glutathionylation of 5,6α-EC). The following applies: for Inhibition of CDO-SG biosynthesis: 1 and 10 mM CDNB, 1 and 10 μM HA, 1 μM 5,6β-EC, 10 μM CT, OCDO, 27-HC or 22(R)-HC (FIG. 2g-h). It counts as biochemical. As for the experimental part: as §1
Series [3] deals with T1, hGSTA1. The series is described as follows: Glutathionylation of CDNB by recombinant hGSTA1 (CDNB-SG biosynthesis). It counts as biochemical. The following applies: for Inhibition of CDNB-SG biosynthesis: 1 and 10 μM 5,6α-EC or HA (FIG. 2c). As for the experimental part: The mixture was incubated for 30 min at 30° C. and the reaction was stopped with 200 μl MeOH. Measurements were carried out spectrophotometrically at 345 nm (Am=8.5 mM^−1·cm^−1). The negative control corresponds to the same test performed in absence of hGSTA1.

The test system of series [4] is LXR. The following applies: endogenous LXR ligand; cited from earlier work.
Substrate in series [5]: N[C@@H](CCC(=O)N[C@@H](CS)C(=O)NCC(=O)O)C(=O)O
The series is described as follows: purified protein, by the assay type. The following applies: other: substrates 5,6α-EC + GSH, product CDO-SG; pH 7.5; 30.0 °C.

Substrate in series [6]: NCCc1c[nH]cn1
The series is described as follows: purified protein, by the assay type. The following applies: other: substrates 5,6α-EC + histamine, product DDA; pH 7.5; 30.0 °C.

[7] abbreviates: substrates 5,6α-EC + histamine, product DDA, Table 1.
The mark [8] stands for this setting: substrates 5,6α-EC + GSH, product CDO-SG, Table 1.

“Also recorded” adds a separate entry of the source.

Regarding `CC(C)CCC[C@@H](C)[C@H]1CC[C@H]2[C@@H]3C[C@@H]4O[C@@]45C[C@@H](O)CC[C@]5(C)[C@H]3CC[C@]12C` [5,6α-EC, 5,6α-epoxy-cholesterol], the “catalytic efficiency higher to transform 5,6α-EC compared to CDNB” value in series [1] worked out at 60 fold. Besides, in series [1] (5,6-EC + HA to DDA), the “Vm^5,6EC” value is 0.81 pmol·min^−1·mg prot. Moreover, the Km in series [1] (substrates 5,6α-EC + histamine, product DDA) was found to be 0.28 µM; in series [2] (substrates 5,6α-EC + GSH, product CDO-SG), 0.44 µM. The “Vm^5,6-EC” value is given as 0.81 pmol · min^−1 · mg.pr in series [1] (setting [7]), 1.33 pmol·min^−1·mg prot in series [2] (5,6-EC + GSH to CDO-SG) and 1.33 pmol · min^−1 · mg.pr in series [2] (setting [8]). Moreover, the “higher affinity of hGSTA1 for 5,6-EC than for CDNB” value in series [2] (ratio of Km) was found to be 73 fold. For the same molecule, the “Inhibition of CDNB-SG biosynthesis” value in series [3] is “not inhibitors”.

In the case of `CC(C)CCC[C@@H](C)[C@H]1CC[C@H]2[C@@H]3C[C@H]4O[C@]45C[C@@H](O)CC[C@]5(C)[C@H]3CC[C@]12C` [5,6β-EC, 5,6β-epoxy-cholesterol], the “Inhibition of DDA biosynthesis (DDAS)” value in series [1] is on record as “most potent inhibitor; also recorded: potent inhibitor”. Further, the “Inhibition of CDO-SG biosynthesis” value in series [2] is listed as “potent inhibitors”.

`O=[N+]([O-])c1ccc(Cl)c([N+](=O)[O-])c1` [CDNB, 1-chloro-2,4-dinitrobenzene]: in series [1], the “Inhibition of DDA biosynthesis (DDAS)” value is reported as “did not inhibit”. Besides, the “Inhibition of CDO-SG biosynthesis” value in series [2] is listed as “did not inhibit”. Further, the “Vm^CDNB” value in series [3] (CDNB + GSH to CDNB-SG) stood at 274 μmol·min^−1·mg prot; in series [3] (substrates CDNB + GSH, product CDNB-S-G, Table 1), 274 µmol/min/mg. In addition, the Km in series [3] (read-out: Km^CDNB, substrates CDNB + GSH, product CDNB-S-G) amounted to 32.2 µM.

`CC(C)CCC[C@@H](C)[C@H]1CC[C@H]2[C@@H]3C[C@@H](SC[C@H](NC(=O)CC[C@H](N)C(=O)O)C(=O)NCC(=O)O)[C@@]4(O)C[C@@H](O)CC[C@]4(C)[C@H]3CC[C@]12C` [CDO-SG, 3β,5α-dihydroxycholestan-6β-yl-S-glutathione]: the “weaker capacity to produce CDO-SG than to produce CDNB-SG” value in series [2] (ratio of maximum velocities) is 24.10^6 fold.

Take `CC(C)CCC[C@@H](C)[C@H]1CC[C@H]2[C@@H]3C[C@@H](O)[C@@]4(O)C[C@@H](O)CC[C@]4(C)[C@H]3CC[C@]12C` [CT]: the “Inhibition of CDO-SG biosynthesis” value in series [2] is “potent inhibitors”.

For the molecule `CC(C)CCCC(C)[C@H]1CCC2C3C[C@@H](NCCc4cnc[nH]4)[C@@]4(O)C[C@@H](O)CC[C@]4(C)C3CC[C@@]21C` (some centres unmarked) [DDA, 5-hydroxy-6-[2-(1H-imidazol-4-yl)ethylamino]cholestan-3-ol], in series [4], the “affinity for LXR” value is recorded as “sub-μM”.

As for `N[C@@H](CCC(=O)N[C@@H](CS)C(=O)NCC(=O)O)C(=O)O` [GSH, glutathione], the IC50 in series [1] (read-out: IC50, inhibition of the biosynthesis of DDA) was determined as 52 µM. The “Vm^GSH” value in series [2] (setting [8]) was 1.50 pmol · min^−1 · mg · pr; in series [3] (CDNB + GSH to CDNB-SG), 8.12 μmol·min^−1·mg prot.

With `NCCc1c[nH]cn1` [HA, histamine], the “catalytic efficiency higher to transform HA compared to GSH” value in series [1] amounted to 60 fold. The “weaker Km for HA than for GSH” value in series [1] (DDA biosynthesis versus CDO-SG biosynthesis) turned out to be 135 fold. For the same molecule, the “Vm^His” value in series [1] (setting [7]) is on record as 0.66 pmol · min^−1 · mg · pr. The “Inhibition of CDO-SG biosynthesis” value in series [2] was “potent inhibitor”. Further, in series [3], the “Inhibition of CDNB-SG biosynthesis” value is on record as “not inhibitors”.

As to `CC(C)CCC[C@@H](C)[C@H]1CC[C@H]2[C@@H]3CC(=O)[C@@]4(O)C[C@@H](O)CC[C@]4(C)[C@H]3CC[C@]12C` [OCDO], the “Inhibition of CDO-SG biosynthesis” value in series [2] is on record as “potent inhibitors”.

B1: hGSTA1 (Homo sapiens) (protein)
chain: MAEKPKLHYFNARGRMESTRWLLAAAGVEFEEKFIKSAEDLDKLRNDGYLMFQQVPMVEIDGMKLVQTRAILNYIASKYNLYGKDIKERALIDMYIEGIADLGEMILLLPVCPPEEKDAKLALIKEKIKNRYFPAFEKVLKSHGQDYLVGNKLSRADIHLVELLYYVEELDSSLISSFPLLKALKTRISNLPTVKKFLQPGSPRKPPMDEKSLEEARKIFRF
B1: in series [5], the Km stood at 47 µM and the Vmax came out at 1.50 pmol·min^−1·mg prot. In addition, in series [6], the Km was 0.35 µM and the Vmax turned out to be 0.66 pmol·min^−1·mg prot.

As a reminder, the Km is the substrate concentration at which the rate is half of its maximum. As a reminder, the IC50 is the concentration that inhibits the measured activity by half.

These data come from patent publication US20170321283A1, “METHODS OF DIAGNOSING CANCER AND OF PREDICTING RESPONSE OF CANCER TO DENDROGENIN A TREATMENT” (INSERM (INSTITUT NATIONAL DE LA SANTÉ ET DE LA RECHERCHE …, priority 2014, published 2017).
